Results reported in patent publication US9341616B2, “Sweet taste receptor chimeric proteins and use thereof” (AJINOMOTO CO., INC., priority 2014, dated 2016).
Like-named read-outs stand apart in the source and are kept apart here. Residues, ends and D or L forms follow the SMILES beside them.

Biological target: h-mT1R2-481/T1R3mosaicA (UniProt Q8TE23+Q925D8, A12W/A31M/A537S/A558R/A564V/A568V/A570T/A588V/A645S/A649T/A658V/A698V/A702T/A782V/A793V/A807V/C582S/C678S/E16H/E530V/E534N/E542M/E548N/E725V/F14L/F29L/F525Y/F541I/F612A/F622V/F665L/F695L/G696N/G701T/H484Y/H528R/H728R/I36V/I481V/I486P/I490V/I510L/I518V/I595M/I60P/I617V/I643V/I645L/I692L/I695G/I706V/I740A/I803L/K30R/K504M/K555R/K565R/K626T/K714N/K818R/K827G/L17P/L521P/L560F/L571I/L578I/L610P/L631F/L636F/L639V/L684P/L688V/L702I/L734M/L735F/L800F/L823M/L825Q/M19T/M492I/M616G/M644L/M682V/M690V/M744T/M748V/N52R/N540G/N541S/N547G/N58S/N63T/N675D/N721H/P545F/P561R/P564S/P61V/P638T/P824S/Q32K/Q536L/Q53S/Q546K/Q550E/Q555R/Q56R/Q611L/Q676H/Q757R/Q795R/Q831P/R498S/R632Q/R667S/S22P/S45E/S501P/S547N/S550A/S576L/S595F/S610P/S628F/S635P/S637R/S663R/S670G/S679G/S681F/S703N/S717H/S727G/S784D/S804G/T46A/T50G/T529S/T542A/T549I/T609V/T629S/T642S/T663I/T694M/T705I/T706G/T716I/T813A/V508I/V512P/V557A/V573A/V584A/V585L/V613L/V617M/V673M/V687A/V691A/V694A/V718L/V718M/V723A/V729T/V738A/V741L/V774I/V791M/V805L/V812A/V821L/W599R/W676R/W824R/Y533F/Y615F/Y671F/Y680C/Y769S/Y783H/Y794L)
Sequence (Q8TE23 with tags, fused parts or gaps with the stated changes limits assumed): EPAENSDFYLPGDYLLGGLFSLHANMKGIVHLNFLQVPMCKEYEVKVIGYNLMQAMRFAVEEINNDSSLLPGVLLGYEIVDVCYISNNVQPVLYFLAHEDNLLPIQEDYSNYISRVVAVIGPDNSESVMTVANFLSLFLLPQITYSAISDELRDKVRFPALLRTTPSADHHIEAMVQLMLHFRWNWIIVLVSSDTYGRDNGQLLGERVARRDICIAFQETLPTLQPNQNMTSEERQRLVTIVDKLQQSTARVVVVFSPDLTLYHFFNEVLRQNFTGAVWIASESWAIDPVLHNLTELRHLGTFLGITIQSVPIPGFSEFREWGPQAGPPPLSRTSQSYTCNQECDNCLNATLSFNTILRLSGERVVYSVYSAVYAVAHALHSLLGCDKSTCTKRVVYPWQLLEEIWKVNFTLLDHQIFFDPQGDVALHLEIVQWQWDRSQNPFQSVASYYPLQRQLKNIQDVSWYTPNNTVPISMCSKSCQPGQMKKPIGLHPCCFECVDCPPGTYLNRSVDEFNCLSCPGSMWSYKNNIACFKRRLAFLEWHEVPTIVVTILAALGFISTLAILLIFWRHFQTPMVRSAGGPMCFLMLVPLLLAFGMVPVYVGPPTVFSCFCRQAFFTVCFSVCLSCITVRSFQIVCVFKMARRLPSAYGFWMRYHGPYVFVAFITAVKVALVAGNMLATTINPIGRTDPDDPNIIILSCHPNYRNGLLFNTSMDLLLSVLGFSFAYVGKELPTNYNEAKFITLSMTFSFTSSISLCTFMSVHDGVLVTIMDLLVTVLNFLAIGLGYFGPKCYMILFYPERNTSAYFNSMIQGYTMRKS
Sequence (Q925D8 with tags, fused parts or gaps with the stated changes limits assumed): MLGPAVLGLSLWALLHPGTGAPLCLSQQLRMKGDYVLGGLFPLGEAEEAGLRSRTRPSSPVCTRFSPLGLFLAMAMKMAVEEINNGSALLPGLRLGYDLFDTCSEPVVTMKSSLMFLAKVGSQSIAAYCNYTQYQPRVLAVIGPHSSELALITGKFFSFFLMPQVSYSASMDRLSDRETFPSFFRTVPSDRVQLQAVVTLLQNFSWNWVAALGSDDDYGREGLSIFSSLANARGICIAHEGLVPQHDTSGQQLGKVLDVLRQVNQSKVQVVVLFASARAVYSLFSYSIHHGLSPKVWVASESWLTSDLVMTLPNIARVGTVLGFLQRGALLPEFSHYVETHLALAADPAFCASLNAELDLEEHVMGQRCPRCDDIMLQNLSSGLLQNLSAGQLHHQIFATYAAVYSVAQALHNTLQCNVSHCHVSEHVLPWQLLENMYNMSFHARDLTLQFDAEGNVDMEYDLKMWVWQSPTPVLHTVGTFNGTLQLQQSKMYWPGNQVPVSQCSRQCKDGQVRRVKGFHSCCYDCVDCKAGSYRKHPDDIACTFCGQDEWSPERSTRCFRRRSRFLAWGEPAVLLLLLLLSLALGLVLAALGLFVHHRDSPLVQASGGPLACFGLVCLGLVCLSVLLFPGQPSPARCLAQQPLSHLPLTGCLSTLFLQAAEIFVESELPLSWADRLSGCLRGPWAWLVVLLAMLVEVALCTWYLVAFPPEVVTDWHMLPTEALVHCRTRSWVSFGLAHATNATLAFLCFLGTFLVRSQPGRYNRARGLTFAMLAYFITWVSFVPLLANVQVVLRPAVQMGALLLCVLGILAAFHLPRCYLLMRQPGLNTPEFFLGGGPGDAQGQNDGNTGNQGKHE
Conditions: HEK293E cells
Experimental: The HEK293E cells maintained by using the DMEM/Ham's F-12 medium (Nakarai Tesque) containing 10% fetal bovine serum ([…]) and 1% Pen Strep (GIBCO) were washed with D-PBS(−) (Nakarai Tesque), and collected from the flask by using 0.25% Trypsin EDTA (GIBCO). The cells were centrifuged (1,200 rpm, 3 minutes), and after the supernatant was removed, suspended in 5% FBS DMEM/Ham's F-12 at a density of 0.75×10^7 cell/ml. This suspension (10 ml) was put into a […] (IWAKI), and culture was performed overnight (37° C., 5% CO2). On the next day, the medium was exchanged with Opti-MEM (30 ml, Invitrogen, Life Technologies), a sweet taste receptor gene mixture (Gα15-trans48LD gene, various kinds of T1R2 chimeric genes, and various kinds of T1R3 chimeric genes, 63.8 μg in total) prepared by using Opti-MEM and Lipofectamin 2000 (Invitrogen, Life Technologies) was slowly added to the cell suspension, and incubation was performed (37° C., 5% CO2) for 6 hours to attain gene transfer.
After the gene transfer, the cells were washed with D-PBS(−), then removed from the flask by using 0.25% Trypsin EDTA (GIBCO), and collected. After the cell number was counted, the cells were suspended in the 5% FBS DMEM medium (2.78 mM glucose, GIBCO) at a density of 0.5×10^6 cell/ml. This cell suspension was put into wells of D-Lysine coat 96-well plate (BD bioscience) in such a volume that the cell count is 7.0×10^4 cells/well, and the cells were cultured overnight.
After the culture, all the medium of the 96 wells were discarded. 200 μl of the staining solution for measurement of intracellular calcium ion′ Calcium Assay Kit Express (Molecular Device), diluted 80 times with an assay buffer (20 mM HEPES, 146 mM NaCl, 1 mM MgSO4, 1.39 mM glucose, 1 mM CaC12, 2.5 mM Probenecid, 0.05% bovine serum albumin) was added to each well, and the plate was left standing at 37° C. for 30 minutes and at room temperature for 45 minutes to perform staining. After the staining, 50 μl of a solution of stimulant (sweet taste substance) prepared with the assay buffer was added to each well, and the fluorescence value was measured for 120 seconds after the stimulation by using FDSSμEELL (Hamamatsu Photonics). By measuring the fluorescence value (Ex. 480 nm, Em. 540 nm) before and after the stimulation, the change of the intracellular free calcium ion concentration caused by addition of the stimulant via a sweet taste receptor was quantitatively investigated. The measurement and analysis of the fluorescence value was performed by using the software attached to FDSSμEELL (FDSS7000EX), and ΔF/F value was calculated in accordance with the following equation, and used for the evaluation. ΔF/F=(Maximum fluorescence value after stimulation−Minimum fluorescence value after stimulation)/(Fluorescence value before stimulation)
Furthermore, by using the ΔF/F values obtained when each sweet taste substance was added, the S/N ratio was calculated. Specifically, the S/N value was calculated by using the minimum value of ΔF/F obtained when each substance was added at various concentrations as noise (N) value, and the similarly obtained maximum value of ΔF/F as the signal (S) value, and used as an index for sensitivity of the measurement of the activity of each receptor. That is, a higher S/N value means a higher sensitivity for detection of an interaction of a sweet taste receptor and a test substance, which makes it easier to detect stimulation with a sweet taste substance or sweet taste-regulating substance of a lower concentration.
The sweet taste substances used as the stimulating substance are acesulfame potassium (Tokyo Kasei Kogyo), sodium saccharin (WAKO), sucralose (SIGMA), sucrose (WAKO), and neotame (SIGMA), as well as aspartame, advantame, and SC-45647 ([3-[(S)-1-phenylethyl]-2-(4-cyanophenyl)guanidino]acetic acid, which were all synthesized in-house.

[1] = Table 5, genes h-mT481/T3mA (h-mT1R2-481, T1R3mA)
[2] = Table 6, genes h-mT481/T1Rm3A (h-mT1R2-481, T1R3mA)
[3] = Table 3, genes h-mT481/T3mA (h-mT1R2-481, T1R3mA)
[4] = Table 4, genes h-mT481/T3mA (h-mT1R2-481, T1R3mA)

| Compound | S/N [1] | S/N [2] | S/N [3] | S/N [4] |
| --- | --- | --- | --- | --- |
| COc1ccc(CCC(=O)c2c(O)cc(O[C@@H]3O[C@H](CO)[C@@H](O)[C@H](O)[C@H]3O[C@@H]3O[C@@H](C)[C@H](O)[C@@H](O)[C@H]3O)cc2O)cc1O [NHDC, neohesperidin dihydrochalcone] | 4.3 | 5.9 | – | – |
| OC[C@H]1O[C@@](CO)(O[C@H]2O[C@H](CO)[C@@H](O)[C@H](O)[C@H]2O)[C@@H](O)[C@@H]1O [Sucrose, sucrose] | 3.4 | 3.8 | 3.4 | 3.9 |
| O=C1NS(=O)(=O)c2ccccc21.[Na] [Saccharin Na, sodium saccharin] | 5.6 | 6.9 | 5.6 | 5.6 |
| COC(=O)[C@H](Cc1ccccc1)NC(=O)[C@@H](N)CC(=O)O [Aspartame, aspartame] (HELM PEPTIDE1{D.F.[CO[*:1]]}$$$$V2.0) | 7.0 | 7.3 | 7.0 | 9.4 |
| COC(=O)[C@H](Cc1ccccc1)NC(=O)[C@H](CC(=O)O)NCCCc1ccc(OC)c(O)c1 [Advantame, advantame] | 10.6 | 10.5 | 10.6 | 11.3 |
| CC1=CC(=O)NS(=O)(=O)O1 [Acesulfame K, acesulfame potassium] | 4.7 | 6.0 | 4.7 | 5.4 |
| COC(=O)[C@H](Cc1ccccc1)NC(=O)[C@H](CC(=O)O)NCCC(C)(C)C [Neotame, neotame] | 8.8 | 8.9 | 8.8 | 9.4 |
| C[C@H](NC(=Nc1ccc(C#N)cc1)NCC(=O)O)c1ccccc1 [SC-45647, [3-[(S)-1-phenylethyl]-2-(4-cyanophenyl)guanidino]acetic acid] | 8.4 | 8.7 | 8.4 | 7.9 |
| OC[C@H]1O[C@H](O[C@]2(CCl)O[C@H](CCl)[C@@H](O)[C@@H]2O)[C@H](O)[C@@H](O)[C@H]1Cl [Sucralose, sucralose] | 7.8 | 7.0 | 7.8 | 9.0 |
